Reference: patent US10004740B2, “Prodrugs of HIV reverse transcriptase inhibitors” (Merck Sharp & Dohme Corp., priority 2014, dated 2018)

Tests used:
[1] = molecular target: T1, HIV-1 RT wild-type enzyme (Human immunodeficiency virus type 1 group M subtype B, UniProt P04585); assay: Determination of HIV-1 reverse transcriptase inhibitory activity (RT polymerase assay, electrochemiluminescence); format: biochemical
T1 construct: The HIV-1 RT wild-type enzyme (final concentration of 83 pM)
From the text: Determination of HIV-1 Reverse Transcriptase Inhibitory Activity
The heterodimeric nucleic acid substrate used in the HIV-1 RT polymerase reactions was generated by annealing the DNA primer, biotinylated pD500 (Sigma Aldrich, USA, 5′-biotin-ttg aaa tga ctg cgg tac ggc-3′), (SEQ ID NO: 1) to the nucleotide RNA template t500 (derived from hepatitis C virus [HCV] sequence, IBA, Germany, 5′-[…]-3′), (SEQ ID NO: 2). The HIV-1 RT wild-type enzyme (final concentration of 83 pM) was combined with an inhibitor or dimethyl sulfoxide (DMSO, 10% in the final reaction mixture) in assay buffer (62.5 mM Tris-HCl [pH 7.8], 1.25 mM dithiothreitol, 7.5 mM MgCl2, 100 mM KCl, 0.03% CHAPS, and 125 μM EGTA). The mixture was then preincubated on an orbital shaker for 30 min at room temperature in microtiter plates (Costar 3365, Corning, USA). A polymerization reaction was initiated by the addition of RNA template/pD500 DNA primer hybrid (16.6 nM final of RNA/DNA hybrid) and dNTPs (2 μM dATP, dGTP, dCTP and 66.6 nM Ru-dUTP (Meso Scale Discovery, USA)). Plate was sealed and incubated for 5-10 min at room temperature on an orbital shaker. Plate was then incubated for 90 min at 37° C. and reactions quenched with 60 μl quenching buffer (50 mM EDTA, 0.7% BSA, 0.7% Tween-20, 0.017% sodium azide in PBS). The resulting solution was incubated at room temperature for an additional 5 min and then 50 μL was transferred to pre-blocked Avidin plates (L15AA, Meso Scale Discovery). Each well of Avidin plate was blocked for 1 h at room temperature with 100 μL 5% BSA in PBS. Blocking solution was removed by tapping vigorously on filter paper to remove all excess liquid. Reaction on pre-blocked avidin plate proceeded for 60 min at room temperature and then contents removed by tapping vigorously on filter paper to remove all excess liquid. After washing plate 3 times with 150 μL 1×PBS and blotting dry between cycles, 150 μL 1× Read Buffer T (4× Read Buffer T, Meso Scale Discovery) was added and incubated for 5 min at room temperature before counting on a Sector Imager […] (Meso Scale Discovery). Titration curves and IC50 values were calculated using a four parameter logistic fit according to standard procedures. Briefly, % Inhibition=100×((sample raw value)−(mean value of the low control or 0% inhibition))/((mean value of wells representing 100% inhibition)−(mean value of 0% inhibition)). In this assay, low control wells contain DMSO (0% inhibition) and 100% inhibition wells contain 1 μM efavirenz.

[2] = Pharmacokinetic studies in rats, oral gavage, plasma LC-MS/MS; format: in vivo; conditions: male, Wistar-Hannover; rat, 5 mg/kg PO, 40% PEG400/10% Tween-80/50% water; plasma concentration of Parent after dosing the Parent compound
Procedure: All animal studies were carried out under Good Laboratory Practice regulations for nonclinical laboratory studies. All animal housing and care procedures were in compliance with the Federal Animal Welfare Act and the Institute for Laboratory Animal Resources. All procedures carried out on the animals were reviewed and approved by the Institutional Animal Care and Use Committee. The animal facility was fully accredited with the Association for Assessment and Accreditation of Laboratory Animal Care International.
Two or three male Wistar-Hannover rats weighing 250 to 350 grams with vendor-placed carotid artery catheters were obtained from Charles River (Raleigh, N.C., U.S.A.). Animals were acclimated on a 12-hour light:dark cycle for a minimum of three days in ventilated plastic cages with food and water ad libitum. Blood samples were automatically collected using the Instech Automated Blood sampler (ABS, Plymouth Meeting, Pa.) at designated intervals up to 24 hr and were manually collected post 24 hr.
Animals were fasted overnight before either the Parent compounds of Examples 1-8 (Formula I′) or compounds of Examples 1 to 8 (Formula I) were administered to rats via an oral gavage at the doses and in vehicles specified in Table 3. The animals were allowed access to water ad libitum, while food was returned 4 hours after dosing.
Blood was drawn from catheters placed in the carotid […] at pre-dose, and 0.25, 0.5, 1, 2, 4, 8, 12, 18, 24, 30, and 48 hr after dosing for all compounds and additionally at 72 hr for compounds of example 1, 3, 4, 5, and 7. The plasma was separated by centrifugation (2 minutes at 10000 rpm) and stored at −70° C. until further analysis.
The quantitative analysis of the compounds was performed using a liquid chromatography and tandem mass spectrometry method (LC-MS/MS). The plasma samples were stabilized as needed prior to extraction. Fifty microliter of each unknown together with the standards and quality control samples were extracted using an automated protein precipitation procedure on a Hamilton workstation. The extract was centrifuged and the supernatant was transferred for analysis. The separation was enabled by a Thermo Aria LX-2 LC system on a reversed phase column e g Waters XSelect HSS T3 XP (50×2.1 mm×2.5 u) or Phenomenex Beta Test Column (50×2.1 mm). The compounds were detected using selected reaction monitoring (SRM) methods by an AB Sciex API5000 mass spectrometer in the positive or negative ionization mode. In addition, chromatographic peaks for Parent compounds of Examples 1-8 (Formula I′) and compounds of Examples 1 to 8 (Formula I) were resolved chromatographically with baseline to baseline separation.
Pharmacokinetic parameters were obtained using noncompartmental methods (Watson®). The area under the plasma concentration-time curve (AUC0-t) was calculated from the first time point (0 minutes) up to the last time point with measurable drug concentration (i.e., concentration of Parent (Formula I′ compound) resulting after administration of each of the Parent and Example compounds) using the linear trapezoidal or linear/log-linear trapezoidal rule. The remaining area under the plasma concentration-time curve (AUCt-∞) was estimated by dividing the observed concentration at the last time point by the elimination rate constant. This value was added to AUC0-t to estimate the AUC0-∞. The maximum plasma concentration (Cmax) and the time at which maximum concentration occurred (Tmax) were obtained by inspection of the plasma concentration-time data.
Table 3 provides AUC values obtained in these studies. In Table 3, the Parent of each Example number refers to the Parent counterpart compound of said Example number compound wherein R^4 is replaced with —H.

| Structure (SMILES) | IC50 [1] | AUC(0-inf) [2] |
| --- | --- | --- |
| N#Cc1cc(Cl)cc(Oc2c(C(F)F)ncn(Cc3cc(Cl)n[nH]c3=O)c2=O)c1 [Parent of Ex. 2, 3-chloro-5-((1-((6-chloro-3-oxo-2,3-dihydropyridazin-4-yl)methyl)-4-(difluoromethyl)-6-oxo-1,6-dihydropyrimidin-5-yl)oxy)benzonitrile] | 3.3 nM | 15.3 µM·h |
| N#Cc1cc(Cl)cc(Oc2c(C(F)(F)F)ncn(Cc3cc(Cl)n[nH]c3=O)c2=O)c1 [Parent of Ex. 3, 3-chloro-5-((1-((6-chloro-3-oxo-2,3-dihydropyridazin-4-yl)methyl)-6-oxo-4-(trifluoromethyl)-1,6-dihydropyrimidin-5-yl)oxy)benzonitrile] | 2.7 nM | 10.2 µM·h |
| N#Cc1cc(Cl)cc(Oc2c(C(F)(F)F)ncn(Cc3cc(C(F)F)n[nH]c3=O)c2=O)c1 [Parent of Ex. 4, 3-chloro-5-((1-((6-(difluoromethyl)-3-oxo-2,3-dihydropyridazin-4-yl)methyl)-6-oxo-4-(trifluoromethyl)-1,6-dihydropyrimidin-5-yl)oxy)benzonitrile] | 3.2 nM | 21 µM·h |
| CC(F)(F)c1cc(Cn2cnc(C(F)(F)F)c(Oc3cc(Cl)cc(C#N)c3)c2=O)c(=O)[nH]n1 [Parent of Ex. 5, 3-chloro-5-((1-((6-(1,1-difluoroethyl)-3-oxo-2,3-dihydropyridazin-4-yl)methyl)-6-oxo-4-(trifluoromethyl)-1,6-dihydropyrimidin-5-yl)oxy)benzonitrile] | 4.6 nM | 29.1 µM·h |
| N#Cc1cc(Cl)cc(Oc2c(C(F)(F)F)ncn(Cc3cc(C(F)(F)F)c(=O)[nH]n3)c2=O)c1 [Parent of Ex. 6, 3-chloro-5-((6-oxo-1-((6-oxo-5-(trifluoromethyl)-1,6-dihydropyridazin-3-yl)methyl)-4-(trifluoromethyl)-1,6-dihydropyrimidin-5-yl)oxy)benzonitrile] | 7.9 nM | 2 µM·h |
| N#Cc1cc(Cl)cc(Oc2c(C(F)(F)F)ncn(Cc3cc(-c4ccc(F)cc4)c(=O)[nH]n3)c2=O)c1 [Parent of Ex. 7, 3-chloro-5-((1-((5-(4-fluorophenyl)-6-oxo-1,6-dihydropyridazin-3-yl)methyl)-6-oxo-4-(trifluoromethyl)-1,6-dihydropyrimidin-5-yl)oxy)benzonitrile] | 3.7 nM | 8.2 µM·h |
| CC(F)(F)c1cc(Cn2cnc(C(C)(F)F)c(Oc3cc(Cl)cc(C#N)c3)c2=O)c(=O)[nH]n1 [Parent of Ex. 8, 3-chloro-5-((4-(1,1-difluoroethyl)-1-((6-(1,1-difluoroethyl)-3-oxo-2,3-dihydropyridazin-4-yl)methyl)-6-oxo-1,6-dihydropyrimidin-5-yl)oxy)benzonitrile] | 4.7 nM | 13.9 µM·h |
